Data as given in BindingDB's records for doi:10.1111/cbdd.12141 (Konkuk University, 2013).

Biological target: Xanthine dehydrogenase/oxidase (Bos taurus, UniProt P80457)
Experiment: XO inhibitory activity
Details: pH 7.6; 25 °C
Experimental: The enzyme was pre-incubated for 5 min, with test compound, dissolved in DMSO (1% v/v). The reaction was initiated by the addition of xanthine.

Sequence of Xanthine dehydrogenase/oxidase (P80457 whole entry): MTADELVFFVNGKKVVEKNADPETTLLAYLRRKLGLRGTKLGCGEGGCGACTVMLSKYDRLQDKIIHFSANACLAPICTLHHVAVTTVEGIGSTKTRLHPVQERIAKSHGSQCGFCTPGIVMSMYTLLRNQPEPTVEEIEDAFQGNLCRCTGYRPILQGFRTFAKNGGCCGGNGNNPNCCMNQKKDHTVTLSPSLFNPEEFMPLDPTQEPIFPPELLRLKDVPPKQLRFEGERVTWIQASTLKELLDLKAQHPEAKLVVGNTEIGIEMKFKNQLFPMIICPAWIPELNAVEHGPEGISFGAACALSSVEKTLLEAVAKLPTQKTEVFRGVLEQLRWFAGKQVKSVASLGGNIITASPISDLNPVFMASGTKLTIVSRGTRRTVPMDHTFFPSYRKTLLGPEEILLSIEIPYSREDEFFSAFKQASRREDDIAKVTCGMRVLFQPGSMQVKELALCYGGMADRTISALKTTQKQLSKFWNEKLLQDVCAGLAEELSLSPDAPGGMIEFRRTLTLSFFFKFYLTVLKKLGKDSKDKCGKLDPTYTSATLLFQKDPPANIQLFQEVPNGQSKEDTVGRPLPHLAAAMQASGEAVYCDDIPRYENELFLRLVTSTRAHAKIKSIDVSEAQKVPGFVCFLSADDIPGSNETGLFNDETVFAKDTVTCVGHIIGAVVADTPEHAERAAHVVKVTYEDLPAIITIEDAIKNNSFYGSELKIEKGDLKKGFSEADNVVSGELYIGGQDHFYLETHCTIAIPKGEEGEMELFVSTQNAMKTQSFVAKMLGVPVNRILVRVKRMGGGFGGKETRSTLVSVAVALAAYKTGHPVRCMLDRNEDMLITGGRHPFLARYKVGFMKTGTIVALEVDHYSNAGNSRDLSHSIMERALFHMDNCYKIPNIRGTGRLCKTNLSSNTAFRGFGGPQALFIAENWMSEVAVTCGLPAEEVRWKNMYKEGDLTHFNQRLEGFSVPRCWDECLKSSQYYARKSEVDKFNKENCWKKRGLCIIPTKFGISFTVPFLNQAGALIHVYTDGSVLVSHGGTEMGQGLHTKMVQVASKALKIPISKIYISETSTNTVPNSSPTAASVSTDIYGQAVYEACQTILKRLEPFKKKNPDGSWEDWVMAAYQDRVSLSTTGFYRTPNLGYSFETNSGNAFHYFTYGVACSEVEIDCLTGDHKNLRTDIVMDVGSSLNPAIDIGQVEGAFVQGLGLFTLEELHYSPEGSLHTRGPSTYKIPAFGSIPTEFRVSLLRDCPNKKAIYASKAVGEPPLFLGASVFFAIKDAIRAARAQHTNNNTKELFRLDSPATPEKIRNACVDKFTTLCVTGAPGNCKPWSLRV

| SMILES | IC50 [µM] |
| --- | --- |
| Oc1ccccc1Cn1c(-c2ccccc2O)nc2ccccc21 | 8.7 |
| c1ccc(Cn2c(-c3ccccc3)nc3ccccc32)cc1 [1‐benzyl‐2‐phenyl‐1,3‐benzodiazole (B10)] | 9.7 |
| Oc1ccc2ccccc2c1-c1nc2ccccc2n1Cc1ccc2ccccc2c1O [1‐{1‐[(1‐hydroxynaphthalen‐2‐yl)methyl]‐1,3‐ benzodiazol‐2‐yl}naphthalen‐2‐ol (B11)] | 5.3 |
| Clc1ccccc1Cn1c(-c2ccccc2Cl)nc2ccccc21 [2‐(2‐chlorophenyl)‐1‐[(2‐chlorophenyl)methyl]‐1,3‐ benzodiazole (B3)] | 4.4 |
| Cc1ccccc1Cn1c(-c2ccccc2C)nc2ccccc21 [2‐(2‐methylphenyl)‐1‐[(2‐methylphenyl)methyl]‐1,3‐ benzodiazole (B4)] | 5.6 |
| Clc1cccc(Cn2c(-c3cccc(Cl)c3)nc3ccccc32)c1 [2‐(3‐chlorophenyl)‐1‐[(3‐chlorophenyl)methyl]‐1,3‐ benzodiazole (B8)] | 8.2 |
| COc1cccc(Cn2c(-c3cccc(OC)c3)nc3ccccc32)c1 [2‐(3‐methoxyphenyl)‐1‐[(3‐methoxyphenyl)methyl]‐ 1,3‐benzodiazole (B13)] | 5.1 |
| Cc1cccc(Cn2c(-c3cccc(C)c3)nc3ccccc32)c1 [2‐(3‐methylphenyl)‐1‐[(3‐methylphenyl)methyl]‐1,3‐ benzodiazole (B9)] | 4.3 |
| Clc1ccc(Cn2c(-c3ccc(Cl)cc3)nc3ccccc32)cc1 [2‐(4‐chlorophenyl)‐1‐[(4‐chlorophenyl)methyl]‐1,3‐ benzodiazole (B2)] | 6.3 |
| COc1ccc(Cn2c(-c3ccc(OC)cc3)nc3ccccc32)cc1 [2‐(4‐methoxyphenyl)‐1‐[(4‐methoxyphenyl)methyl]‐ 1,3‐benzodiazole (B14)] | 8.5 |
| Cc1ccc(Cn2c(-c3ccc(C)cc3)nc3ccccc32)cc1 [2‐(4‐methylphenyl)‐1‐[(4‐methylphenyl)methyl]‐1,3‐ benzodiazole (B5)] | 7.5 |
| c1cncc(Cn2c(-c3cccnc3)nc3ccccc32)c1 [2‐(pyridin‐3‐yl)‐1‐(pyridin‐3‐ylmethyl)‐1,3‐ benzodiazole (B12)] | 7.1 |
| Oc1cccc(Cn2c(-c3cccc(O)c3)nc3ccccc32)c1 [3‐{1‐[(3‐hydroxyphenyl)methyl]‐1,3‐benzodiazol‐2‐ yl}phenol (B7)] | 5.8 |
| Oc1ccc(Cn2c(-c3ccc(O)cc3)nc3ccccc32)cc1 [4‐{1‐[(4‐hydroxyphenyl)methyl]‐1,3‐benzodiazol‐2‐ yl}phenol (B6)] | 4.5 |
